Measured values taken from patent US10035766B2, “Compositions for preventing and/or treating lysosomal storage disorders” (Amicus Therapeutics, Inc., priority 2009, dated 2018).
Substitutions are numbered along the chain they refer to. Where a name gives a salt, the structure may show the parent alone. Read-outs that look alike come from different tables or passages of the source.

Key:
GCase = target: T1, GCase (Homo sapiens, UniProt P04062); assay: GCase activity enhancement (EC50, Emax) of Table 2B; format: cell-based
T1 sequence (P04062 40-536): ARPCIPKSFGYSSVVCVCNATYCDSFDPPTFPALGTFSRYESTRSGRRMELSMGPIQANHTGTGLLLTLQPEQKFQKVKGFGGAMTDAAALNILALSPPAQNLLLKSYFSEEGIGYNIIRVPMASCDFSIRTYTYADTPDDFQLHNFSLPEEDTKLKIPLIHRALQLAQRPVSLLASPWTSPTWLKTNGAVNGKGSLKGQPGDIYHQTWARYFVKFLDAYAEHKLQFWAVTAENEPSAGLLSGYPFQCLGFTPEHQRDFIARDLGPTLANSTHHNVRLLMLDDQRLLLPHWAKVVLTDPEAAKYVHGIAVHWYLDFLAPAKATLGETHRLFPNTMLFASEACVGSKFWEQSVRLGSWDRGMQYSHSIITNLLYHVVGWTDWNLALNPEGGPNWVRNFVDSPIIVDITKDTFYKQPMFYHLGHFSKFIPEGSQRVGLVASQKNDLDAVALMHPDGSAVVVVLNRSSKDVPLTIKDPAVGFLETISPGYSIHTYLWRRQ

lysosomal GCase = target: T2, lysosomal GCase (Homo sapiens, UniProt P04062); assay: In situ lysosomal GCase inhibition and washout in fibroblasts from a normal subject (PFBFDβGlu substrate); format: cell-based; conditions: for in situ washout: after 16-24 hours at IC90, single exponential fit of activity recovery over 8 hours; for IC50: fibroblasts, compound 16-24 hours, substrate 1 hour
T2 construct: fibroblasts established from a normal subject; endogenous in cells; host or cells: fibroblasts established from a normal subject
T2 sequence (P04062 40-536): T1 sequence (P04062 40-536)
Description: The effect of the novel compounds of the present invention on lysosomal GCase activity was assayed in situ using fibroblasts established from a normal subject. Cells seeded in 48-well plates were incubated with the indicated concentrations of compound for 16-24 hours. For the dose-response assays, cells were incubated with the in situ substrate 5-(pentafluorobenzoylamino)fluorescein di-β-D-glucopyranoside (PFBFDβGlu) for 1 hour and subsequently lysed to determine the extent of substrate hydrolysis in the presence of compound. […] Inhibition was determined as the ratio of activity in the presence of compound to that in the absence of compound. […] Cells were washed extensively and incubated in drug-free medium to allow net compound efflux from cells. Cells were then tested for lysosomal GCase activity at 2 hour intervals over a total period of 8 hours following compound removal. The increase in activity over time was fitted with a single exponential function to determine the compound's washout time.

[1] = target: T3, recombinant human GCase (rhGCase; Cerezyme®) (Homo sapiens, UniProt P04062, R534H); assay: In vitro enzyme inhibition assay (4-MU-β-D-Glc hydrolysis) for IC50 and Ki; format: biochemical; conditions: for Ki: Cheng-Prusoff from IC50
T3 construct: purchased Genzyme Corp
T3 sequence (P04062 40-536 R534H): T1 sequence (P04062 40-536) with R495H
Description: The binding affinity (defined here by Ki binding constant) of GCase for novel compounds of the present invention were empirically determined using enzyme inhibition assays. In brief, the enzyme inhibition assays used monitored the ability of a test compound to bind and prevent the hydrolysis of a fluorogenic substrate in a concentration-dependent manner. Specifically, the enzyme activity of recombinant human GCase (rhGCase; Cerezyme®, Genzyme Corp.) was measured using the 4-methylumbelliferyl-β-D-glucopyranoside (4-MU-β-D-Glc) fluorogenic substrate in the absence or in the presence of varying amounts of each test compound. […] The enzyme inhibition assays were performed at both pH 7.0 (endoplasmic reticulum pH) and at pH 5.2 (lysosomal pH) to gain insight into the binding affinity (i.e., potency) of compounds for GCase in the endoplasmic reticulum and lysososome.
Various concentrations of test compounds were prepared in buffer “M” consisting of 50 mM sodium phosphate buffer with 0.25% sodium taurocholate at pH 7.0 and pH 5.2. Enzyme (Cerezyme®, a recombinant form of the human enzyme β-glucocerebrosidase) was also diluted in the same buffer “M” at pH 7.0 and pH 5.2. […] Five microliters of diluted enzyme was added to 15 μl of the various inhibitor concentrations or buffer “M” alone and incubated at 37° C. for 1 hour with 50 μl of the substrate preparation to assess β-glucosidase activity at pH 7.0 and pH 5.2. […] Fluorescence was measured on a plate reader for 1 sec/well using 355 nm excitation and 460 nm emission.

[2] = pH 5.2 (lysosomal pH), read-out: Ki (μM) pH 5.2
[3] = pH 5.2 (lysosomal pH), read-out: IC50 (μM) pH 5.2
[4] = pH 7.0 (endoplasmic reticulum pH), read-out: Ki (μM) pH 7.0
[5] = pH 7.0 (endoplasmic reticulum pH), read-out: IC50 (μM) pH 7.0

Emax (GCase) [%]	in situ washout (lysosomal GCase) [h]	Ki [1, 2] [µM]	IC50 [1, 3] [µM]	Ki [1, 4] [µM]	IC50 [1, 5] [µM]	IC50 (lysosomal GCase) [nM]	EC50 (GCase) [nM]	inhibition of GCase activity (lysosomal GCase)	Emax (%) (GCase)	Structure (SMILES)	GCase activity enhancement compared to reference compound IFG-tartrate (GCase; same maximum level as IFG-tartrate at much lower concentration)
72.1 ± 3.5										O[C@@H]1[C@@H]([C@H](O)c2ccccc2)CNC[C@H]1O [(3R,4R,5R)-5-((S)-hydroxy(phenyl)methyl)-piperidine-3,4-diol]	
99.3 ± 4.9	12 ± 1.65									CC(O)C1CNCC(O)C1O (single isomer, unassigned) [Compound 10]	
								inhibited GCase activity		CC(O)[C@H]1CNC[C@@H](O)[C@@H]1O (single isomer, unassigned)	concentration-dependent increase in GCase activity
	10.5 ± 1.75	0.044 ± 0.0017	0.107 ± 0.0041	0.01 ± 0.0004	0.02 ± 0.0008	518 ± 22	490 ± 60		83.7 ± 2.9	C[C@@H](O)[C@H]1CNC[C@@H](O)[C@@H]1O [Compound 9, (3R,4R,5R)-5((R)-1-Hydroxyethyl)piperdine 3,4-diol]	
109 ± 3.6										CC(C)(O)[C@H]1CNC[C@@H](O)[C@@H]1O [(3R,4R,5S)-5-(2-hydroxypropan-2-yl)piperidine-3,4-diol]	
89.7 ± 3.5	3.7 ± 0.63	0.016 ± 0.0007	0.038 ± 0.0016	0.004 ± 0.0001	0.007 ± 0.0003	61 ± 19	26 ± 3			C[C@@H](F)[C@H]1CNC[C@@H](O)[C@@H]1O [Compound 14, (3R,4R,5R)-5((R)-(1-Fluoroethyl)piperdine 3,4-diol Hydrochloride]	

Structure (SMILES)	Emax (GCase) [%]	in situ washout (lysosomal GCase) [h]	Ki [1, 2] [µM]	IC50 [1, 3] [µM]	Ki [1, 4] [µM]	IC50 [1, 5] [µM]	IC50 (lysosomal GCase) [nM]	EC50 (GCase) [nM]	inhibition of GCase activity (lysosomal GCase)	Emax (%) (GCase)	GCase activity enhancement compared to reference compound IFG-tartrate (GCase; same maximum level as IFG-tartrate at much lower concentration)
C[C@H](F)[C@H]1CNC[C@@H](O)[C@@H]1O [Compound 13, (3R,4R,5R)-5((S)-1-Fluoroethyl)piperdine 3,4-diol Hydrochloride]	92.8 ± 6.6	2.7 ± 0.12	0.0498 ± 0.0015	0.0946 ± 0.0028	0.009 ± 0.0004	0.0171 ± 0.0008	650 ± 172	44 ± 5			
